The target in series [1] is T1, Type-2 angiotensin II receptor (Homo sapiens, UniProt P50052). Further: in other assays of this panel Not Active means under 50% inhibition at 10 µM.
T1 sequence (P50052 whole entry): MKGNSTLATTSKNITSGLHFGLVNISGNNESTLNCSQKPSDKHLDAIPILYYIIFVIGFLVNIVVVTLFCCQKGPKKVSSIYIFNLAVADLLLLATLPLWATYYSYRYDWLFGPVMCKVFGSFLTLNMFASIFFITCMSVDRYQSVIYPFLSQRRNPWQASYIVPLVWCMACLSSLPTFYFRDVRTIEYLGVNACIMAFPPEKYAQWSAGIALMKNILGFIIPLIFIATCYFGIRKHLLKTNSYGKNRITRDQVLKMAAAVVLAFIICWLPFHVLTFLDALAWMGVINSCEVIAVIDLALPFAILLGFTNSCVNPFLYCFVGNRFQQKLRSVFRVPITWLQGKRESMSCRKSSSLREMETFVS
It is filed as cell-based. The following applies: cho-k1.

The nature of series [2]: DRUGMATRIX: Calcium Channel Type L, Dihydropyridine radioligand binding (ligand: [3H] Nitrendipine). The class given is cell membranes, Rattus norvegicus, Wistar, Cerebral cortex, Membrane. The following applies: Not Active = under 50% inhibition at 10 µM.
Series [3] concerns the target 5-hydroxytryptamine receptor 2B (Homo sapiens, UniProt P41595). It is filed as cell membranes, CHO-K1, Membrane. Further: in other assays of this panel Not Active means under 50% inhibition at 10 µM.
A short description of series [4]: DRUGMATRIX: Calcium Channel Type L, Phenylalkylamine radioligand binding (ligand: [3H] (-)-Desmethoxyverapamil (D-888)). The class given is cell membranes, Rattus norvegicus, Wistar, Brain, Membrane. The following applies: Not Active = under 50% inhibition at 10 µM.
Series [5] has as its target C-C chemokine receptor type 5 (Homo sapiens, UniProt P51681). It is filed as cell membranes, Membrane. The following applies: hek293. Further: in other assays of this panel Not Active means under 50% inhibition at 10 µM.
A further series has as its target T2, D(4) dopamine receptor (Homo sapiens, UniProt P21917).
T2 sequence (P21917 whole entry): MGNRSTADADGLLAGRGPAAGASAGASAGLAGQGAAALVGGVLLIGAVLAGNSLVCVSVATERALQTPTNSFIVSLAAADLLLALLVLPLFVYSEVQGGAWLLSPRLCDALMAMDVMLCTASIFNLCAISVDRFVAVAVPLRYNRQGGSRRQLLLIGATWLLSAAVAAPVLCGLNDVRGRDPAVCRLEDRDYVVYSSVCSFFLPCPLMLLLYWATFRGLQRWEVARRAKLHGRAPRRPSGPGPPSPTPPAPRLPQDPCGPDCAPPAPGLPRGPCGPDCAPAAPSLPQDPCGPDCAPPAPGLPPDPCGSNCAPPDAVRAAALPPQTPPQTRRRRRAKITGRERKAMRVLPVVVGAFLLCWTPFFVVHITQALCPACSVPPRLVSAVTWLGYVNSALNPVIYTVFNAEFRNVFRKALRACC
As to the kind of experiment: DRUGMATRIX: Dopamine D4.2 radioligand binding (ligand: [3H] Spiperone). The class given is cell membranes, CHO-K1, Membrane. Conditions: cho-k1; Not Active = under 50% inhibition at 10 µM.

For a further series, the target named is T3, Cytochrome P450 2A6 (Homo sapiens, UniProt P11509). Further: in other assays of this panel Not Active means under 50% inhibition at 10 µM.
T3 sequence (P11509 whole entry): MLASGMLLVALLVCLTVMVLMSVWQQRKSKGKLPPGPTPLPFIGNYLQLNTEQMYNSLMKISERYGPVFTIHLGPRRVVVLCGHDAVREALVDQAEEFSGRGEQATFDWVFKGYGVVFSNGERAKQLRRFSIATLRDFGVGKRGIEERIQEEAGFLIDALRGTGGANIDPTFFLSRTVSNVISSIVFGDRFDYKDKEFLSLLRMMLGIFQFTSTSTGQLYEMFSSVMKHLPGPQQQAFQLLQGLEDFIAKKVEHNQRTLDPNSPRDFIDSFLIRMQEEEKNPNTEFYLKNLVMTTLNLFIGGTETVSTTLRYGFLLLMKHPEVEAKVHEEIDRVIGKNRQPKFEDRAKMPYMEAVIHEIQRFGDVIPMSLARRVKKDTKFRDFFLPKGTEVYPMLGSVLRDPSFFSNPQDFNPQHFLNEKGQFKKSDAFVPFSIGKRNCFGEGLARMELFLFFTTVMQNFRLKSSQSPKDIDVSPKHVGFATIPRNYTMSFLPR
Conditions: bti-tn-5b1-4.

The IC50 is the midpoint of a concentration-inhibition curve. Broadly, the Ki is the equilibrium dissociation constant of an inhibitor or competing ligand from its target.

Chain of C-C chemokine receptor type 5 (P51681 whole entry): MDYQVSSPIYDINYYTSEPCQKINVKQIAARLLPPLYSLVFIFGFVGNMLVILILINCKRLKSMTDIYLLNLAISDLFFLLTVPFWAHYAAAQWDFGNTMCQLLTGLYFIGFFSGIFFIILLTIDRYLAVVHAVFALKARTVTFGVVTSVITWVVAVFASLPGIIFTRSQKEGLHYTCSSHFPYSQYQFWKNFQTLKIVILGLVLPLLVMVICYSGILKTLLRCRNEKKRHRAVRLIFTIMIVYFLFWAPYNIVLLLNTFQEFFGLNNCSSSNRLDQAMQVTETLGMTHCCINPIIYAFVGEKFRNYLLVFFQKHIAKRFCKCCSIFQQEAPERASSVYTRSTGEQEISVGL
Chain of 5-hydroxytryptamine receptor 2B (P41595 whole entry): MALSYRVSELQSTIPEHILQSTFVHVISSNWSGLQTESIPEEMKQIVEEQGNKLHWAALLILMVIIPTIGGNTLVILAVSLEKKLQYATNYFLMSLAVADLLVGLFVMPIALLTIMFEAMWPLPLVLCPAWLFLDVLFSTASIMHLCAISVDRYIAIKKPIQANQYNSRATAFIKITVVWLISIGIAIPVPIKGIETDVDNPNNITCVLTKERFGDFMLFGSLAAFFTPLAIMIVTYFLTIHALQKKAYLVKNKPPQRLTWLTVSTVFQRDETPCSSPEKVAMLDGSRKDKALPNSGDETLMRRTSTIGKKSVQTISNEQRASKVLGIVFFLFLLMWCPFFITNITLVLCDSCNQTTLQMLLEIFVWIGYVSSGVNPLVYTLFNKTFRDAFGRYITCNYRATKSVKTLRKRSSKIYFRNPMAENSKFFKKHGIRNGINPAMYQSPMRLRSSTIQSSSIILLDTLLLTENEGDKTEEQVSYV

In the case of `CN(CCOc1ccc(CC2SC(=O)NC2=O)cc1)c1ccccn1` (stereo unspecified) [ROSIGLITAZONE], the IC50 entry (in series [1]; in series [2]; in series [3] (cho-k1); in series [4]; in series [5]; at D(4) dopamine receptor) was “Not Active” in each case. Also, the IC50 result against Cytochrome P450 2A6 is listed as “Not Active”. For the same molecule, the Ki entry (in series [2]; in series [4]; on Cytochrome P450 2A6) was “Not Active” each time.
Turning to `C=C(C)[C@H]1Cc2c(ccc3c2O[C@@H]2COc4cc(OC)c(OC)cc4[C@@H]2C3=O)O1` [ROTENONE], the IC50 result (in series [1]; in series [2]; in series [3] (cho-k1); in series [4]; in series [5]; at D(4) dopamine receptor) was “Not Active” in each case. In addition, on Cytochrome P450 2A6, the IC50 result is “Not Active”. The Ki result (in series [2]; in series [4]; on Cytochrome P450 2A6) was “Not Active” each time.
`C#CCN(C)[C@H](C)Cc1ccccc1` [SELEGILINE]: the IC50 entry (in series [1]; in series [2]; in series [3] (cho-k1); in series [4]; in series [5]; at D(4) dopamine receptor) was “Not Active” throughout. Further, the IC50 entry on Cytochrome P450 2A6 was “Not Active”. Besides, the Ki result (in series [2]; in series [4]; at Cytochrome P450 2A6) was “Not Active” in each case.
For `CO[C@H]1C[C@@H]2CC[C@@H](C)[C@@](O)(O2)C(=O)C(=O)N2CCCC[C@H]2C(=O)O[C@H]([C@H](C)C[C@@H]2CC[C@@H](O)[C@H](OC)C2)CC(=O)[C@H](C)/C=C(\C)[C@@H](O)[C@@H](OC)C(=O)[C@H](C)C[C@H](C)/C=C/C=C/C=C/1C` [SIROLIMUS], the IC50 result (in series [1]; in series [2]; in series [3] (cho-k1); in series [4]; in series [5]; at D(4) dopamine receptor) was “Not Active” throughout. Besides, on Cytochrome P450 2A6, the IC50 entry was “Not Active”. In addition, the Ki result (in series [2]; in series [4]; on Cytochrome P450 2A6) was “Not Active” each time.
For `CN[C@@H]1[C@H](O)[C@H](NC)[C@H]2O[C@@]3(O)C(=O)C[C@@H](C)O[C@H]3O[C@@H]2[C@H]1O` [SPECTINOMYCIN], the IC50 entry (in series [1]; in series [2]; in series [3] (cho-k1); in series [4]; in series [5]; at D(4) dopamine receptor) was “Not Active” each time. The IC50 entry at Cytochrome P450 2A6 is listed as “Not Active”. The Ki entry (in series [2]; in series [4]; on Cytochrome P450 2A6) was “Not Active” throughout.
`Nc1ccc(S(=O)(=O)Nc2ncccn2)cc1` [SULFADIAZINE]: the IC50 entry (in series [1]; in series [2]; in series [3] (cho-k1); in series [4]; in series [5]; at D(4) dopamine receptor) was “Not Active” in each case. Moreover, at Cytochrome P450 2A6, the concentration for half-maximal inhibition (IC50) entry was “Not Active”. Further, the Ki result (in series [2]; in series [4]; on Cytochrome P450 2A6) was “Not Active” throughout.
`COc1ncnc(NS(=O)(=O)c2ccc(N)cc2)c1OC` [SULFADOXINE]: the IC50 result (in series [1]; in series [2]; in series [3] (cho-k1); in series [4]; in series [5]; at D(4) dopamine receptor) was “Not Active” throughout. Further, at Cytochrome P450 2A6, the IC50 result is given as “Not Active”. For the same molecule, the Ki result (in series [2]; in series [4]; at Cytochrome P450 2A6) was “Not Active” throughout.
Take `Nc1ccc(S(=O)(=O)Nc2nccs2)cc1` [SULFATHIAZOLE]: the IC50 entry (in series [1]; in series [2]; in series [3] (cho-k1); in series [4]; in series [5]; on D(4) dopamine receptor) was “Not Active” each time. The IC50 result on Cytochrome P450 2A6 was “Not Active”. In addition, the Ki result (in series [2]; in series [4]; at Cytochrome P450 2A6) was “Not Active” each time.
Consider `C[C@]12CC[C@H]3[C@@H](CCC4=CC(=O)CC[C@@]43C)[C@@H]1CC[C@@H]2O` [TESTOSTERONE], for which the IC50 result (in series [1]; in series [2]; in series [3] (cho-k1); in series [4]; in series [5]; at D(4) dopamine receptor) was “Not Active” each time. Also, the IC50 entry on Cytochrome P450 2A6 is “Not Active”. Moreover, the Ki result (in series [2]; in series [4]; at Cytochrome P450 2A6) was “Not Active” each time.
For the molecule `CC(C)(C)NC[C@H](O)COc1nsnc1N1CCOCC1` [TIMOLOL], the IC50 result (in series [1]; in series [2]; in series [3] (cho-k1); in series [4]; in series [5]; on D(4) dopamine receptor) was “Not Active” throughout. Besides, on Cytochrome P450 2A6, the IC50 entry was “Not Active”. In addition, the Ki entry (in series [2]; in series [4]; on Cytochrome P450 2A6) was “Not Active” throughout.
For the molecule `C[C@@H]1C[C@H]2[C@@H]3CCC4=CC(=O)C=C[C@]4(C)C3=CC[C@]2(C)[C@H]1C(=O)CN1CCN(c2cc(N3CCCC3)nc(N3CCCC3)n2)CC1` [TIRILAZAD], the Ki result in series [1] was “Not Active”; in series [2], “Not Active”; in series [3] (read-out: Ki), 11.8 µM; in series [4] (read-out: Ki) it was 2.43 µM; on Cytochrome P450 2A6, “Not Active”. Moreover, the IC50 result was “Not Active” in series [2]; 18.5 µM in series [3] (read-out: IC50); 2.5 µM in series [4] (read-out: IC50); “Not Active” in series [5]; “Not Active” at D(4) dopamine receptor; “Not Active” on Cytochrome P450 2A6.
As for `NC[C@H]1O[C@H](O[C@H]2[C@H](O)[C@@H](O[C@H]3O[C@H](CO)[C@@H](O)[C@H](N)[C@H]3O)[C@H](N)C[C@@H]2N)[C@H](N)C[C@@H]1O` [TOBRAMYCIN], the IC50 result (in series [1]; in series [2]; in series [3] (cho-k1); in series [4]; in series [5]; on D(4) dopamine receptor) was “Not Active” each time. Also, at Cytochrome P450 2A6, the IC50 result was “Not Active”. For the same molecule, the Ki result (in series [2]; in series [4]; on Cytochrome P450 2A6) was “Not Active” in each case.
Turning to `O=C(O)C(Cl)(Cl)Cl` [TRICHLOROACETIC ACID], the IC50 result (in series [1]; in series [2]; in series [3] (cho-k1); in series [4]; in series [5]; at D(4) dopamine receptor) was “Not Active” each time. For the same molecule, at Cytochrome P450 2A6, the 50% inhibitory concentration (IC50) result is “Not Active”. The Ki result (in series [2]; in series [4]; on Cytochrome P450 2A6) was “Not Active” throughout.
With `CC(=O)O[C@H]1C[C@@H]2CC[C@@H]3[C@H](CC[C@@]4(C)[C@H]3C[C@H]([N+]3(C)CCCCC3)[C@@H]4OC(C)=O)[C@@]2(C)C[C@@H]1N1CCCCC1.[Br-]` [VECURONIUM BROMIDE], the concentration for half-maximal inhibition (IC50) entry (in series [1]; in series [2]; in series [3] (cho-k1); in series [4]; in series [5]; at D(4) dopamine receptor) was “Not Active” in each case. For the same molecule, the IC50 result against Cytochrome P450 2A6 is “Not Active”. Besides, the Ki result (in series [2]; in series [4]; on Cytochrome P450 2A6) was “Not Active” throughout.
Regarding `COc1cc(C(=O)NS(=O)(=O)c2ccccc2C)ccc1Cc1cn(C)c2ccc(NC(=O)OC3CCCC3)cc12` [ZAFIRLUKAST], the IC50 entry (in series [1]; in series [2]; in series [3] (cho-k1); in series [4]; in series [5]; at D(4) dopamine receptor) was “Not Active” each time. On Cytochrome P450 2A6, the IC50 entry is “Not Active”. In addition, the Ki entry (in series [2]; in series [4]; at Cytochrome P450 2A6) was “Not Active” in each case.

Source of the values: ChEMBL document CHEMBL1909046, “DrugMatrix in vitro pharmacology data”.
